From patent US12544413B2, “Composition with antibacterial and re-epithelializing action including probiotics” (EOS2021 S.R.L, priority 2019, dated 2026)

What was measured:
[1] = Clinical course of diabetes ulcers and toe amputation wound in a patient (Example 1); format: in vivo, human; settings: 500 mg orally every 12 hours, four weeks
Excerpt: The probiotic formulation was a composition comprising Lactobacillus plantarum NCIMB 43029, Lactobacillus acidophilus NCIMB 43030 and the known Streptococcus thermophilus (SEQ ID NO: 10). 0.5 g of composition was applied once daily.
The use of the probiotic formulation was discontinued on day 60, 24 days after treatment.

HaCaT keratinocytes = test: Trypan blue dye exclusion test of HaCaT viability; format: cell-based, human; settings: 0.1%; positive control; P≤0.01
Protocol: The HaCaT cell line of spontaneously immortalized human keratinocytes was purchased from Cell Lines Service GmbH (Eppelheim, Germany). HaCaT cells were cultured in DMEM supplemented with 10% (v/v) fetal calf serum (FCS), 2 mM L-glutamine, 100 U/ml penicillin and 100 μg/ml streptomycin (Euro Clone, West York, UK). The culture conditions were kept constantly at 37° C. in a humidified atmosphere with 5% CO2. After reaching 80% confluency, cells were seeded, as specified below, in 6- or 12-well plates for sterile cell cultures (Becton Dickinson, San José, CA) at the concentration of 18,000 cells/cm^2. Non-adherent cells were removed by gentle washing in phosphate buffer (PBS, pH=7.4). Cells grown in a 12-well plate were collected at 20, 28 and 45 hours and live cells were counted with the trypan blue dye exclusion test (Euro Clone, West York, UK). […] Untreated cells were also analysed and used as negative controls. The cells were transferred to a Bürker counting chamber and counted under a microscope Eclipse 50i (Nikon Corporation, Japan). For the selection of suitable concentrations of bacterial extract expressed as μg protein/ml, the viability of the HaCaT keratinocytes was analyzed using the trypan blue exclusion test. […]

[2] = tested on: scratched monolayers of HaCaT cells (human keratinocyte cell line); test: In vitro wound healing model (scratched HaCaT monolayer); format: cell-based; settings: AG 20 μM, 15 min pre-treatment, no bacterial extract, 20 hours
Protocol: The inventor has evaluated the ability of extracts obtained from selected bacterial strains to influence wound re-epithelialization using an in vitro artificial wound model. The rate of closure of the scratched monolayer in untreated cells and in cells treated with each bacterial extract at the concentration of 50 μg/ml is shown and evaluated through the observation of the repopulation of the area between the wound edges at different time points after the wound generation. In order to quantitatively analyze the effects of the bacterial extracts on the closure of the wound area, images obtained by using an inverted phase contrast microscope at 0, 20, 28 and 45 hours after the scratch were acquired and expressed as a percentage of closure by using an automatical calculation system to evaluate the percentage of area occupied by said cells with respect to the total surface area analyzed. […] The results expressed as percentages of relative re-epithelialization (mean±SEM from three independent experiments conducted in duplicate) as well as the images representing microscopic observations of scratched monolayers are shown in FIGS. 1A and 1B respectively.
The HaCaT cell line of spontaneously immortalized human keratinocytes was purchased from Cell Lines Service GmbH (Eppelheim, Germany). […] Untreated cells were also analysed and used as negative controls. […]

iNOS = test: Nitrite levels assay (Griess) in culture medium of scratched HaCaT monolayers; format: cell-based, human; settings: AG 20 μM, 15 min pre-treatment, no bacterial extract, 28 hours
Protocol: The scratched monolayers of HaCaT cells were incubated with or without AG at the concentration of 20 μM for 15 minutes before treatment with the bacterial extracts. Nitrite levels in the culture medium were analyzed by Griess reagent after 28 hours. Data shown are expressed as the mean±SEM of three independent experiments conducted in duplicate. The two-way analysis of variance followed by the Bonferroni's post-hoc test was used to assess the presence of statistically significant differences between the data groups: *P<0.05, **P<0.01, ****P<0.0001 with respect to the control (untreated). #P<0.05, ##P<0.01, ###P<0.001, ####P<0.0001 with respect to each corresponding culture without AG. The ability of bacterial extracts to regulate iNOS was further analyzed by measuring the nitrite levels in supernatants of scratched monolayers of HaCaT cells pre-treated with AG, a selective iNOS inhibitor, or not treated with such inhibitor (known from T. P. Misko et al., Eur. J. Pharmacol, 1993, 233:119-125). NO production was indirectly evaluated with the use of the Griess method by measuring nitrite levels using nitrate reductase and the Griess reaction based on a colorimetric assay. […] Absorbance was measured by spectrophotometric reading at 550 nm using a microplate reader (Bio-Rad Hercules, California, USA). […]

CC1(C)S[C@@H]2[C@H](NC(=O)[C@H](N)c3ccc(O)cc3)C(=O)N2[C@H]1C(=O)O [amoxicillin]
clinical picture of the wounds (wound exudate) [1]: worsening clinical picture

Triton X
cell viability (HaCaT keratinocytes): significant reduction

N=C(N)NN [AG, aminoguanidine]
re-epithelialization (repairing) of the control monolayer [2]: strong effect on the physiological repairing of the control monolayer | nitrite production induced by scratching the control monolayer (iNOS): significantly prevented the increase in nitrite production
